Source: patent US12636274B2, “Pharmaceutical compositions and methods for systemic treatment of solid tumors” (7 HILLS INTERESTS LLC, priority 2014, dated 2026)

Key:
LFA-1/ICAM-1 = LFA-1/ICAM-1 (Homo sapiens, UniProt P05107+P20701); assay: LFA-1 dependent cell adhesion to ICAM-1; format: cell-based; settings: FIG. 4; ICAM-1 and Cmpd 1 versus BSA, ICAM-1 alone, Ig and anti-integrin antibodies
From the text: Referring now to FIG. 4, a histogram is shown of induced LFA-1 ([…]) dependent cell adhesion to ICAM-1 in the presence of BSA, ICAM-1, ICAM-1 and a compound of Formula (I) (Cmpd 1), Ig, anti-α4, anti-αL, anti-β1, and anti-β2.
(§1) Activating all integrins is necessary for firm endothelial cell adhesion for extravasation.

α2b1/Collagen I = α2b1/Collagen I (Homo sapiens, UniProt P05556+P17301); assay: Integrin activation, adhesion α2b1/Collagen I; format: cell-based; parameters: key: Not Active: Not active: ≤2 fold increase in adhesion; settings: 50% serum; n = 3
Sequence of α2b1/Collagen I (P17301 30-1181): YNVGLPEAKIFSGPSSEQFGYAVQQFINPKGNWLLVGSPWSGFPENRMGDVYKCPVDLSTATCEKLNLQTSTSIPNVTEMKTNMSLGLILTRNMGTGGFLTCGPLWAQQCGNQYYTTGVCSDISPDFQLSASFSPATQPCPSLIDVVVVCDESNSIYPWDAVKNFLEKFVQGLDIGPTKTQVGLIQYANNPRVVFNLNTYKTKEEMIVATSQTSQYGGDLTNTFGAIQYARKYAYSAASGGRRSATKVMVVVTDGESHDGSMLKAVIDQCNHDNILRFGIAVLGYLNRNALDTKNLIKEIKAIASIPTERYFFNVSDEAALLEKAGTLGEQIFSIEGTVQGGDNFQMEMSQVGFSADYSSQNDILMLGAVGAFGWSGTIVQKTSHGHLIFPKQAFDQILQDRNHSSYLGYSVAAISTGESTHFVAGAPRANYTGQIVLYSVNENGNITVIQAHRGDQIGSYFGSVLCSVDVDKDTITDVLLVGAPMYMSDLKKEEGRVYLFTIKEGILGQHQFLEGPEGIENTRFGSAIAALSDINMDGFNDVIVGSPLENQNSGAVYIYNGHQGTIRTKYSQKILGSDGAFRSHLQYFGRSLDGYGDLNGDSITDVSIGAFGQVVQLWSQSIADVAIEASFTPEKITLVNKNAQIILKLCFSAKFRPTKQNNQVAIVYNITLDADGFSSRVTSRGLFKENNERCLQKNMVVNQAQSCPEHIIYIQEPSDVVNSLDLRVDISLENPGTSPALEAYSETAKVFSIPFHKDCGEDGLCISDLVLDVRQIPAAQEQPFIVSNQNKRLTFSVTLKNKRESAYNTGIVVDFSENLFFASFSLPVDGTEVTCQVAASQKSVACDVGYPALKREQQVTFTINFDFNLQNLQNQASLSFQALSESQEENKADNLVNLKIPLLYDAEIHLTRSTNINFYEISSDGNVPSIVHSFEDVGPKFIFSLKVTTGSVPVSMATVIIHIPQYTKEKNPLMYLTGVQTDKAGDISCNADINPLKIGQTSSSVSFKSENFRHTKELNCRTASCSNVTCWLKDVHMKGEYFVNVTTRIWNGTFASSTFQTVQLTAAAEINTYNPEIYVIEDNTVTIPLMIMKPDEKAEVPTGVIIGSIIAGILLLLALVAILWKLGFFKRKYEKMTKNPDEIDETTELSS
Sequence of α2b1/Collagen I (P05556 21-798): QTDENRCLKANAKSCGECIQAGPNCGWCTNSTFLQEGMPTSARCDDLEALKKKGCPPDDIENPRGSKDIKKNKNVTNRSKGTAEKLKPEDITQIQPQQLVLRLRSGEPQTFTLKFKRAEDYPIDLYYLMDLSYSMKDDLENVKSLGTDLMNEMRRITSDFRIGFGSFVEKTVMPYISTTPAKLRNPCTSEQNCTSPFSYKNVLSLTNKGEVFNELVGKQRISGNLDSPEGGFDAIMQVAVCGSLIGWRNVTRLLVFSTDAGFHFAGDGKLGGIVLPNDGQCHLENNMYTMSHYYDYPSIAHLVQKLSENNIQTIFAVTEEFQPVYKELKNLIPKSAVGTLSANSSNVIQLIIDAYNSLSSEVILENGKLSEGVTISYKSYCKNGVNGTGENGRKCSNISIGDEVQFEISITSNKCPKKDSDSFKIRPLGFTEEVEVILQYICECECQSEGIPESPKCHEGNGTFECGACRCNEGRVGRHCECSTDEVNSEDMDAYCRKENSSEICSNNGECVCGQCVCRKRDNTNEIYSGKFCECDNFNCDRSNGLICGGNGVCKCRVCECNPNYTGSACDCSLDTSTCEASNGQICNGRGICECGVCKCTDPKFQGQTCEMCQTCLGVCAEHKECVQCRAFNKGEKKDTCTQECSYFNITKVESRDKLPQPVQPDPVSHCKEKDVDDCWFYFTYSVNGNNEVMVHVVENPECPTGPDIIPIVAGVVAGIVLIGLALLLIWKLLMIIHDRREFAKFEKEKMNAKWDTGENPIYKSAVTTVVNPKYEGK
From the text: as §1

[1] = test system: CT26 colon cancer syngeneic tumor; assay: Study 1: CT26 syngeneic tumor model in Balb/c mice; format: in vivo, Mouse (Mus musculus)
Procedure: Mouse colon carcinoma CT26 cells were obtained from American Type Culture Collection (ATCC), USA. Cells were grown in RPMI-1640 medium (Sigma, Cat # R6504) supplemented with 10% FBS (Invitrogen, Cat #10438-026), and 1% penicillin streptomycin (Thermo Fisher Scientific, Cat #15140-122). To establish allografts, 1 million CT26 cells were suspended in 50 μL of serum-free medium and mixed at 1:1 ratio with matrigel before implanting subcutaneously into the right flank of mice.
Prior to inoculation, the skin on the injection site was swabbed with alcohol. To establish allografts, CT26 cells were suspended in serum free medium at a concentration of (1×10^6)/50 μL, mixed with equal volume of matrigel (1:1 ratio) and 100 μL of this mixture was injected to each mouse by subcutaneous implantation using a 1 mL BD syringe attached to a 24 gauge needle.
CT26 tumor xenografts were measured after approximately 1 week of cell inoculation when they become palpable. When the average tumor volume reaches around 110 mm^3, animals were randomized into treatment groups group maintaining the average tumor volume of each group similar across groups for Study 1 and Study 2. In Study 3, the animals were randomized on the basis of body weights +1 day post cell implantation.
Tumor dimensions (length and breadth) were measured on days 0 (animal randomization based on tumor volume) and thrice weekly thereafter until study termination. Tumor volumes were calculated using the formula (b^2*l)*0.52 where l=length, b=breadth (Dusan Djokovic et al., BMC Cancer, 2010, 10:641). Tumor growth inhibition was calculated after normalizing the tumor volume on a given day to that on day 1.
Mean body weight loss and percent changes were calculated for each group. Similarly, mean tumor volume and percent tumor growth inhibition were calculated. The percent tumor growth inhibition (% TGI) as a function of anti-tumor efficacy were computed with respect to untreated vehicle control by comparing to the tumor volumes of day 1 using formula described below: % TGI=[1−(Treatment TVFinal−Treatment TVInitial)/(Control TVFinal−Control TVInitial)]*100
The test agent, Compound 1 was evaluated in CT26 syngeneic tumor model in Balb/c mice. Compound 1 was administered in mice when the starting tumor volume reached 109±7.1 mm^3 eight days after implantation of CT26 cells.

[2] = test system: CD3+ CD8+ and CD3+ CD4+ tumor infiltrating T-cells; assay: Tumor infiltrating lymphocytes (TILs) by FACS in CT26 tumors; format: in vivo, Mouse (Mus musculus)
Procedure: On day 19 of treatment initiation tumors were isolated from study mice aseptically (n=5/group).
Tumor tissue was minced devoid of dead and necrotic tissue was mechanically disaggregated aseptically in RPMI medium without proteolytic enzymes in gentleMACS C-tubes using gentleMACS Octo Dissociator under the program 37C_m_TDK_1_30m (Miltenyi Biotec). Cell suspension was enriched for single cells by filtering the disaggregated mix through 70 μm cell strainer. Cells were pelleted at 300 g for 7 min at 4° C., washed twice with fresh complete media followed by FACS buffer containing PBS w/o calcium and magnesium (pH 7.4), 2% FBS and 0.05% sodium azide. Note: Proteolytic enzymes may chew up the antigen epitopes, therefore enzymatic dissociation is not performed.
Five million total viable cells were used as input for staining with the following fluorochrome conjugated antibodies for 30 min on ice in dark. Unbound stain was removed by washing cells in FACS buffer twice. […]
Unstained cells were used for setting up gates and focus single cells using INSPIRE acquisition software in Amnis FlowSight flow cytometer (Amnis Corporation, Seattle, WA) with 405, 488, 642 nm excitation lasers. […]
Before proceeding for FACS acquisition, we have recorded the total viable cell yield for each tumor sample. […] From the CD3 positive population gated out of viable 7AAD-ve population, the percentage of viable cells displaying CD3 positive signal was recorded using the statistics option in FACS software. […] Based on this information, yield per million cells was calculated and reported in results.
In addition, tumors were allowed to grow up to day 18 with continued Compound 1 dose, that decreased tumor growth resulting in a significant inhibition p<0.01 in the q.d. group compared to p<0.0001 in BID group. […] Upon non-enzymatic dissociation, cell viability was assessed and subjected to enumeration of CD3^+, CD4^+ or CD8^+ tumor infiltrating T-cells (detailed method, refer section 11).

Sequence of LFA-1/ICAM-1 (P20701 26-1170): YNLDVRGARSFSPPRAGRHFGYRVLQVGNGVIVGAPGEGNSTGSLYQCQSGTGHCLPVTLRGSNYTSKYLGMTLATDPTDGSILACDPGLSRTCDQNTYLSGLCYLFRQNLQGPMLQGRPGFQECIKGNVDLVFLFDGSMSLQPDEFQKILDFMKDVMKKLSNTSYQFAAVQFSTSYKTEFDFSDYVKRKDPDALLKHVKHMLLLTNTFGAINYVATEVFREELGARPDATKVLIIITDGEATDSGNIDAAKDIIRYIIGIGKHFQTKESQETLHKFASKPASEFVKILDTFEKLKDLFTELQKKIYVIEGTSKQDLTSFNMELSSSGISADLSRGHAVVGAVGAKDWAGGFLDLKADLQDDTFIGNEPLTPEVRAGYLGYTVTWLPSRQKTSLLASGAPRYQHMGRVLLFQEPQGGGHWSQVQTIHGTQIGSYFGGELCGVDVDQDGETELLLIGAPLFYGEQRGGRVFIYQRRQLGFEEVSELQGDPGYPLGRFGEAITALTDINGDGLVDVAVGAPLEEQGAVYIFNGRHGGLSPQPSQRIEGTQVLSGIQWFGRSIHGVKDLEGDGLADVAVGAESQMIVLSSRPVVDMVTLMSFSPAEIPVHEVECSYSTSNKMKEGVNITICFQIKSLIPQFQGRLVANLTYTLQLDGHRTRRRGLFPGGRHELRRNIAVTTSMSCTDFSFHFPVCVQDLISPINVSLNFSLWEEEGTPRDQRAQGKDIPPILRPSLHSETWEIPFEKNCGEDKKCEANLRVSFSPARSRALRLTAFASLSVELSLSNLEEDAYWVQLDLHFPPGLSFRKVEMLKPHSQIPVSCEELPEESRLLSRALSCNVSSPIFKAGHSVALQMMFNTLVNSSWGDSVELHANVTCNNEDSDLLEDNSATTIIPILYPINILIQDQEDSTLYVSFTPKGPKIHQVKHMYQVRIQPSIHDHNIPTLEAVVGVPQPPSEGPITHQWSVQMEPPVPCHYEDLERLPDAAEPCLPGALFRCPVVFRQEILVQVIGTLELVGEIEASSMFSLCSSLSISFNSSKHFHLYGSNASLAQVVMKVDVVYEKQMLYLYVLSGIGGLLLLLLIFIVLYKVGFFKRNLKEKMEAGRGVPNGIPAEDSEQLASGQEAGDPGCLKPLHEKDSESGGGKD
Sequence of LFA-1/ICAM-1 (P05107 23-769): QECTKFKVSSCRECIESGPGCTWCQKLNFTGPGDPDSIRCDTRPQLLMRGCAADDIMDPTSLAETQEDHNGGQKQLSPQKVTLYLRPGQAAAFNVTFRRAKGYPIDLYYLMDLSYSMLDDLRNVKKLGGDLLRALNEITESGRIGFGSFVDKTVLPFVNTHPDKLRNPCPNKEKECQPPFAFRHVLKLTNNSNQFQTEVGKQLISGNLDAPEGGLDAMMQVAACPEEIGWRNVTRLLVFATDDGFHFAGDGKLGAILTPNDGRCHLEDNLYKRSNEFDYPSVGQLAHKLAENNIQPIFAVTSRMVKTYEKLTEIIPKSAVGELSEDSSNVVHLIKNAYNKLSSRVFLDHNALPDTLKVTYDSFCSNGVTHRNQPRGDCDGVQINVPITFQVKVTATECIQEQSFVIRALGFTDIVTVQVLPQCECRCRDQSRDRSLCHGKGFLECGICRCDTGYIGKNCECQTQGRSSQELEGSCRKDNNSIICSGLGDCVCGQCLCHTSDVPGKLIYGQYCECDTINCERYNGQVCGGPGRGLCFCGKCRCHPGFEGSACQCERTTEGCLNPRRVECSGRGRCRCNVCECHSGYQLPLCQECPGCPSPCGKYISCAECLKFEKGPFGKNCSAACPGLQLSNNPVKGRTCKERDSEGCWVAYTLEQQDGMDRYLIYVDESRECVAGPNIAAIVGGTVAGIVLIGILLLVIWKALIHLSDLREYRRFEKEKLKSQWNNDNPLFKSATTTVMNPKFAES

SMILES: O=C(OCCOCCOCCOC(=O)N(Cc1cccs1)Cc1cccs1)N(Cc1cccs1)Cc1cccs1 [Compound 1, 3-oxo-1-(2-thienyl)-2-(2-thienylmethyl)-4,7,10-trioxa-2-azadodecan-12-yl bis(2-thienylmethyl)carbamate]
- bound cells, adhesion to ICAM-1 (LFA-1/ICAM-1): highest bound cells
- Integrin Selectivity EC50 α2b1/Collagen I (α2b1/Collagen I): Not Active
- % Tumor Growth Inhibition ([1]; Study 1, 1 mg/kg IP QD at 4 h, Day 4): 36.1%
- % Tumor Growth Inhibition ([1]; Study 1, 1 mg/kg IP QD at 4 h, Day 6): 41.4%
- % Tumor Growth Inhibition ([1]; Study 1, 1 mg/kg IP QD at 4 h, Day 8): 61.5%
- % Tumor Growth Inhibition ([1]; Study 1, 1 mg/kg IP QD at 4 h, Day 11): 64.4%
- % Tumor Growth Inhibition ([1]; Study 1, 1 mg/kg IP QD at 4 h, Day 13): 55.4%
- % Tumor Growth Inhibition ([1]; Study 1, 20 mg/kg PO QD at 4 h, Day 4): −6.1%
- % Tumor Growth Inhibition ([1]; Study 1, 20 mg/kg PO QD at 4 h, Day 6): 16.5%
- % Tumor Growth Inhibition ([1]; Study 1, 20 mg/kg PO QD at 4 h, Day 8): 38.2%
- % Tumor Growth Inhibition ([1]; Study 1, 20 mg/kg PO QD at 4 h, Day 11): 42.2%
- % Tumor Growth Inhibition ([1]; Study 1, 20 mg/kg PO QD at 4 h, Day 13): 36.2%
- tolerability in term of body weights of animals ([1]; Study 1, oral (20 mg/kg QD) and intraperitoneal (1 mg/kg QD) routes): well tolerated
- growth of established CT26 tumors ([1]; single agent, orally or intraperitoneally once daily for up to 30 days): delayed the growth
- CD3+ and CD4+ double positive cells in tumor ([2]; Study 3, day 19, compared to vehicle control): decreased trend
- CD3+ and CD8+ double positive T-cells in tumor ([2]; Study 3, day 19, compared to vehicle control, opposite to the decreased CD3+ CD4+ trend): trend was opposite
- ratio of CD8+/CD4+ T-cells in tumors ([2]; single agent, in response to treatment): progressive increase
